Marks after values point to notes of the source that are not given here.
Assays:
clinical [1] = conditions: male, human, in vivo; for CL renal: CLr; for half-life: T½
Description: Subjects were randomized to receive cilansetron 8 mg IV solution (30-minute infusion), cilansetron 8 mg oral solution, and a cilansetron 8 mg capsule during the three treatment periods, with a 23-day washout between periods. All doses were administered under fasted conditions. […] Table 2.7.1.2.3 presents descriptive statistics for the pharmacokinetic parameters of cilansetron capsule and oral solution, and the results of statistical comparisons between treatments (capsule versus solution). […] Median Tmax was also similar between the capsule and oral solution.
Subjects were randomized to receive cilansetron 8 mg IV solution (30-minute infusion), cilansetron 8 mg oral solution, and a cilansetron 8 mg capsule during the three treatment periods, with a 23-day washout between periods. All doses were administered under fasted conditions. […] Its low bioavailability, complete absorption from the GI tract, and its 4.5- to 5-fold higher apparent oral clearance in comparison to systemic clearance indicate that cilansetron is a high extraction drug and undergoes significant first pass metabolism on oral administration. Intersubject % CVs were higher for oral (47-73%) than for IV administration (19-20%), reflecting increased variability due to oral absorption. Intrasubject % CVs ranged from 37-47% following oral and IV administration.
Cilansetron concentrations in this study were also modeled using a standard 2-compartment model for the IV data and a 1-compartment model for the oral data (using TOPFIT 2.0). The results from modeling are compared to the results obtained from non-compartmental analysis in Table 2.7.2.3.10 below, for the oral and IV solution. The results obtained by the two methods are very similar.

in vitro = in vitro ADME; conditions: human, plasma
Description: Protein binding was also evaluated in an in vitro study in human, mouse, rat, and dog plasma using equilibrium dialysis (12-14K molecular weight cut-off membrane). This study measured the binding of (^14C)-cilansetron in plasma at nominal concentrations (30, 90, and 300 ng/mL) which are much higher than those encountered in vivo in humans. This study also measured the binding of (^14C)-cilansetron to purified human serum albumin at cilansetron concentrations ranging from 30-3000 ng/mL and to purified human alpha-1 acid glycoprotein (AAG) at concentrations ranging from 30-10000 ng/mL.

healthy subjects = assay: Study K.241.5012: colonic transit time, healthy young subjects; type: in vivo, human; conditions: mean (SD); for Transit Times, Colon Total: null hypothesis not rejected vs placebo
Text: The effect of cilansetron on gastric emptying time and colonic transit time has been studied in 1 clinical study in healthy young subjects and 2 studies in elderly subjects. For measurement of gastric emptying time, breath samples for the determination of the ^12C/^13C ratio were taken on the last day of each treatment period immediately after ingestion of a ^13C labeled meal. The patients' breath was collected in separate 15-minute intervals, for four hours in total. ^13CO2 measurements were performed with an isotope ratio mass spectrometer. The half-life (TK) and lag-time (Tlag), which describe the duration of gastric emptying, were used as the primary parameters to evaluate gastric emptying time. In all 3 studies, colonic transit time was measured by administration of radio-opaque markers for the last six days of each treatment period, followed by a single abdominal X-ray image at 24 hours after ingestion of the last set of markers. The numbers of markers within the colon were used to calculate segmental (right colon, left colon, and rectosigmoid) and total colonic transit time.
Study K.241.5013 was a randomized, double-blind, placebo-controlled, 3-way crossover study in 12 healthy male subjects (ITT population), aged 20-27 years. Subjects received cilansetron 4 mg, cilansetron 8 mg, or placebo orally TID for 14 days during each of the treatment periods, with a 14-day washout between periods. The primary efficacy parameter was the total mean colonic transit time during each treatment and the secondary parameters were the segmental colonic transit times and the gastric emptying measurements. A one-sided Dunnett t-test procedure was used to compare efficacy parameters between the cilansetron and placebo treatments.

[2] = both, human, in vivo
Description: Diurnal variations in cilansetron pharmacokinetics have been evaluated in a randomized, double-blind, placebo-controlled, 2-way crossover study in 9 male and 9 female healthy subjects, aged 21 to 39 years. Subjects were randomized to receive 2 treatments (cilansetron 16 mg tablet and placebo) during the 2 treatment periods. During each treatment period, subjects received a single dose of their assigned treatment on the first day (Day 1), after which they received the same treatment TID for 4 days (Days 2-5). There was a 10-day washout period between treatment periods. Subjects were fasted for at least 2 hours before and following each dose, and heavy physical activity was restricted. Serial blood samples for the measurement of multiple-dose pharmacokinetics of cilansetron were collected up to 24 hours postdose on Day 5.

clinical [3] = conditions: human, in vivo, 16 mg
Description: In a single-dose, crossover study conducted to evaluate the potential for a drug-drug interaction between liquid Maalox and cilansetron, 12 male and 12-female subjects (aged 19-39 years) received single doses of cilansetron 16 mg alone and cilansetron 16 mg+Maalox in a crossover fashion under fasted conditions. Blood samples for measurement of plasma cilansetron pharmacokinetics were collected up to 24 hours postdose following each treatment.
The effect of concomitantly administered antacid (liquid Maalox) on the pharmacokinetics of cilansetron has been evaluated in a single-dose, crossover study in 24 healthy, male and female subjects, aged 19 to 39 years. Subjects received the following two treatments during each of the study periods in a crossover fashion: a single oral dose of cilansetron 16 mg tablet (reference treatment); a single oral dose of cilansetron 16 mg tablet+20 mL oral Maalox liquid administered every 4 hours (test treatment; 4 doses of Maalox in total; cilansetron was administered 5 minutes after the first dose of Maalox). Both cilansetron treatments were administered under fasted conditions.

clinical [4] = conditions: both, human, in vivo, po, 16 mg
Description: In a randomized, double-blind, placebo-controlled, 2-way crossover study in 9 male and 9 female healthy subjects (ITT population, aged 21-39 years), subjects were randomized to receive 2 treatments (cilansetron 16 mg tablet and placebo) during the 2 treatment periods. During each treatment period, subjects received a single dose of their assigned treatment on the first day (Day 1), after which they received the same treatment TID for 4 days (Days 2-5). There was a 10-day washout period between treatment periods. Subjects were fasted for at least 2 hours before and following each dose, and heavy physical activity was restricted. Serial 12-lead ECGs was recorded up to 24 hours following dosing on Day 1 (single dose) and on the last day (Day 5) of each treatment period. Heart rate and ECG intervals (RR, PR, QRS, and QT) were measured electronically, but were manually verified and corrected if needed by the investigator. QT intervals were corrected (QTc) electronically for heart rate using the Bazett's correction. Mean and maximum QTc intervals were calculated over different time intervals postdose and were compared between treatments using an ANOVA accounting for sequence, gender, subject within sequence and gender, period, and treatment effects.

With Cc1nccn1C[C@H]1CCc2c(c3cccc4c3n2CCC4)C1=O [Cilansetron, (R)-(−)-4,5,6,8,9,10-hexahydro-10-[(2-methyl-1H-imidazol-1-yl)methyl]-11H-pyrido-[3,2,1-jk]-carbazol-11-one] the “AUC(0-inf) ratio Oral Capsule/IV Soln” value (clinical [1]) was 25 (19, 32) %, the “AUC(0-inf) ratio Oral Soln/IV Soln” value (clinical [1]) was 26 (20, 34) % and the “AUC(0-last) ratio Oral Capsule/IV Soln” value (clinical [1]) was 23 (18, 31) %. The “AUC(0-last) ratio Oral Soln/IV Soln” value (clinical [1]) was 24 (18, 32) %, the “Intrasubject % CV” value (clinical [1]) was 37-47% and the “% Dose (urine)” value (clinical [1]; iv) was 0.41 (96) %. For the same molecule, the “AUC(0-inf)” value (clinical [1]; iv) was 222 (42) ng · h/mL, the CL (clinical [1]; iv) was 619 (108) mL/min and the “Intersubject % CV” value (clinical [1]; iv) was 19-20%. The T½ (clinical [1]; iv) was 1.33 (0.32) h, the Vss (clinical [1]; iv) was 58 (11) L and the AUC(0-inf) (clinical [1]; iv, 8 mg, AUC(0-inf)) was 234 ng·h/mL. It also gave an AUC(0-t) (clinical [1]; iv, 8 mg, AUC(0-last)) of 228 ng·h/mL, a clearance (clinical [1]; iv, 8 mg, CL) of 590 mL/min and a CL renal (clinical [1]; iv, 8 mg) of 2.3 mL/min. For the same molecule, the clearance (clinical [1]; iv, 8 mg, Systemic plasma clearance) was roughly 600 mL/min, the half-life (clinical [1]; iv, 8 mg) was 1.33 h and the Vd (clinical [1]; iv, 8 mg, Vss) was 55.6 L. It also gave a Vd (clinical [1]; iv, 8 mg, Vz) of 66.7 L, an AUC(0-inf) (clinical [1]; iv, AUC (0-inf)) of 234 ng·h/mL and a clearance (clinical [1]; iv, CL) of 590 mL/min. The Cmax (clinical [1]; iv, Cmax) was 149 ng/mL, the Vd (clinical [1]; iv, Steady-state volume of distribution (Vss)) was roughly 56 L and the Tmax (clinical [1]; iv, Tmax) was 0.55 h. The half-life (clinical [1]; iv) was 1.33 h, the Vd (clinical [1]; iv, Vss) was 56 L and the “AUC (0-inf) ratio capsule:oral solution” value (clinical [1]; po) was 93%. The “AUC (0-last) ratio capsule:oral solution” value (clinical [1]; po) was 96%, the “AUC(0-inf)” value (clinical [1]; po) was 69 (49) ng · h/mL and the “Apparent oral clearance higher than systemic clearance” value (clinical [1]; po) was 4.5-5 fold. For the same molecule, the Cmax (clinical [1]; po) was 29 (18) ng/mL, the “Cmax ratio capsule:oral solution” value (clinical [1]; po) was 88% and the “Intersubject % CV” value (clinical [1]; po) was 47-73%. For the same molecule, the Tmax (clinical [1]; po) was 0.76 (0.40) h, the T½ (clinical [1]; po) was 1.14 (0.27) h and the bioavailability (clinical [1]; po) was 25%. For the same molecule, the “AUC(0-inf)” value (clinical [1]; po, 8 mg) was 73.8 (69) ng · h/mL, the “AUC(0-last)” value (clinical [1]; po, 8 mg) was 69.3 (73) ng · h/mL and the CLr (clinical [1]; po, 8 mg) was 2.37 (95) mL/min. The Cmax (clinical [1]; po, 8 mg) was 39.2 (67) ng/mL, the Tmax (clinical [1]; po, 8 mg) was 0.83 (0.33, 1.25) h and the T½ (clinical [1]; po, 8 mg) was 1.47 (21) h. For the same molecule, the Vz/F (clinical [1]; po, 8 mg) was 308 (79) L, the AUC(0-inf) (clinical [1]; po, 8 mg, AUC (0-inf)) was 66 ng·h/mL and the AUC(0-t) (clinical [1]; po, 8 mg, AUC (0-last)) was 62.1 ng·h/mL. It also gave a CL renal (clinical [1]; po, 8 mg) of 2.92 mL/min, a Cmax (clinical [1]; po, 8 mg, Cmax) of 31.4 ng/mL and a Tmax (clinical [1]; po, 8 mg, Tmax) of 1 h. The half-life (clinical [1]; po, 8 mg) was 1.28 h, the Vd/F (clinical [1]; po, 8 mg, Vz/F) was 342 L and the AUC(0-inf) (clinical [1]; po, AUC (0-inf)) was 74 ng·h/mL. It also gave a Cmax (clinical [1]; po, Cmax) of 39 ng/mL, a Tmax (clinical [1]; po, Tmax) of 0.76 h and a half-life (clinical [1]; po) of 1.47 h. For the same molecule, the fraction unbound (in vitro) was 0.042, the “Transit Times, Colonic Segments Left” value (healthy subjects; 4 mg TID oral 14 days) was 24.2 (12.9) hours and the “Transit Times, Colonic Segments Rectosigmold” value (healthy subjects; 4 mg TID oral 14 days) was 15.8 (13.5) hours. For the same molecule, the “Transit Times, Colonic Segments Right” value (healthy subjects; 4 mg TID oral 14 days) was 9.4 (9.5) hours, the “Transit Times, Colon Total” value (healthy subjects; 4 mg TID oral 14 days) was 49.4 (24.6)^a hours and the “Transit Times, Colonic Segments Left” value (healthy subjects; 8 mg TID oral 14 days) was 25.8 (16.7) hours. For the same molecule, the “Transit Times, Colonic Segments Rectosigmold” value (healthy subjects; 8 mg TID oral 14 days) was 16.2 (11.9) hours, the “Transit Times, Colonic Segments Right” value (healthy subjects; 8 mg TID oral 14 days) was 11.8 (13.9) hours and the “Transit Times, Colon Total” value (healthy subjects; 8 mg TID oral 14 days) was 53.8 (28.5)^a hours. The “AUC ratio 0-8 h/8-16 h” value [2] was 106 (99, 115) %, the “AUC ratio 0-8 h/16-24 h” value [2] was 110 (103, 119) % and the “AUC ratio 8-16 h/16-24 h” value [2] was 104 (96, 111) %. The “Cmax ratio 0-8 h/8-16 h” value [2] was 130 (111, 153) %, the “Cmax ratio 0-8 h/16-24 h” value [2] was 133 (113, 157) % and the “Cmax ratio 8-16 h/16-24 h” value [2] was 102 (87, 120) %. The “Mean Cmax higher after morning dose than mid-day and evening doses” value ([2]; 16 mg) was 30-33%, the AUC(0-inf) (clinical [3]; both) was 264 ng·h/mL and the AUC(0-t) (clinical [3]; both) was 264 ng·h/mL. The Cmax (clinical [3]; both) was 102 ng/mL, the Vd/F (clinical [3]; both) was 237 L and the half-life (clinical [3]; both) was 2.39 h. The AUC(0-inf) (clinical [3]; female) was 361 ng·h/mL, the AUC(0-t) (clinical [3]; female) was 360 ng·h/mL and the Cmax (clinical [3]; female) was 137 ng/mL. The Vd/F (clinical [3]; female) was 202 L, the half-life (clinical [3]; female) was 2.97 h and the AUC(0-inf) (clinical [3]; male) was 159 ng·h/mL. The AUC(0-t) (clinical [3]; male) was 159 ng·h/mL, the Cmax (clinical [3]; male) was 63.1 ng/mL and the Vd/F (clinical [3]; male) was 276 L. It also gave a half-life (clinical [3]; male) of 1.75 h and a Tmax (clinical [4]) of 3 h.
